Laboratory results taken from patent US7803982B2, “T1R3 transgenic animals, cells and related methods” (The Mount Sinai School of Medicine of New York University, priority 2001, dated 2010).
Entries after “also recorded” stand apart in the source; their conditions may differ. Counter-ions that a name gives are not always drawn.

Tests used:
Type in all cases: in vivo, mouse
[1] = test system: glossopharyngeal (GL) nerve of T1R3 knock-out and B6 wild-type mice; test: Whole-nerve recording from the glossopharyngeal (GL) nerve on lingual application of tastants; details: for GL responses of T1R3 knock-out mice compared with B6 wild-type mice: integrated response normalized to 100 mM NH4Cl
Experimental: (§1) The general linear model for repeated measurements analysis was used to compare the responses of T1R3 knock-out, B6 wild-type and 129 wild-type mice, with tastant concentration as dependant variables and genotype as fixed factor. For each compound, the responses from all concentrations were analyzed together, the response from each concentration being treated as a single value for the multiple measurement analysis. For behavioral tests, the F value is given for comparison of all genotypes. When a significant difference was found, the Tukey's test was used to determine which means differed. P values from the Tukey's test are given for T1R3 knock-out vs. B6 and for T1R3 knock-out vs. 129. When this analysis gave a borderline p value (0.05<p<0.06) each concentration was analyzed individually using the general linear model univariate analysis. For CT and GL nerve responses to glucose, maltose and sucralose the general linear model univariate analysis was used because only one concentration was tested for each of these tastants.
(§2) To examine the contributions of the gustatory nerves to the behavioral responses, we recorded from the chorda tympani (CT) branch of the facial nerve and the glossopharyngeal (GL) nerve of T1R3 knock-out and B6 wild-type mice. Recordings of electrical impulses from the chorda tympani (CT) and the glossopharyngeal (GL) nerves were performed according to known methods (Kawai, K. et al., Proc. Nat'l. Acad. Sci. USA, 97: 11044 (2000)). Male and female mice were used. Tastants were applied at a regular flow rate to the tongue for 30 seconds (CT) or 60 seconds (GL). Tastant concentrations are listed below:
(§3) At 5, 10, 15, 20 and 25 seconds (for the CT) and 5, 10, 20, 30 and 40 seconds (for the GL) after stimulus onset the integrated response magnitudes to each stimulus were measured in the chart records as magnitudes of pen deflection (mm) from baseline (before stimulation) and averaged. These averages were normalized to the response to NH4Cl and analyzed with the General Linear Model Multiple Measures of SPSS with tastant concentrations provided to subjects as “variables” and genotype differences between subjects as “factor”. The single concentrations (see FIG. 14) used for the sugars, sorbitol and saccharin were chosen to be in the midrange of CT responses of C57BL6 mice based on previous studies (Ninomiya, Y. and Imoto, T., Am J. Physiol., 268: R1019 (1995); Ninomiya, Y. et al., Am J. Physiol., 269: R930 (1995); Inoue, M. et al., Chem. Senses, 26: 915 (2001)).

[2] = test system: chorda tympani (CT) nerve of T1R3 knock-out and B6 wild-type mice; test: Whole-nerve recording from the chorda tympani (CT) nerve on lingual application of tastants; details: integrated response normalized to 100 mM NH4Cl
Experimental: as §1, §2, §3

[3] = test system: T1R3 knock-out, B6 wild-type and 129 wild-type mice; test: 48-hour two-bottle preference test (tastant versus water); details: for Behavioral (preference) response of T1R3 knock-out mice compared with B6 wild-type mice: 48 h two-bottle test, concentrations eliciting preference in B6 wild-type; for Preference responses compared among B6, 129 and T1R3 knock-out mice: B6 (taster), 129 (nontaster), T1R3 knock-out (null); for Response of T1R3 knock-out mice compared with 129 mice: two-bottle preference
Experimental: Behavioral tests were conducted to examine the responses of T1R3 knock-out mice to tastants representing five taste qualities (sweet, bitter, salty, sour and umami). Mice of both sexes aged between 2 and 12 months were used. Age- and gender-matched mice were used in the three genotype groups, and littermates were used in the knock-out and B6 wild-type control groups. The two-bottle preference test consisted of giving the mice two bottles, one containing deionized water and the other a tastant solution, for 48 hours. The bottle positions were swapped after 24 hours to eliminate position effects. The ratio of tastant to total liquid consumed was measured and compared between groups using known methods (see, e.g., Wong, G. T. et al., Nature, 381: 796 (1996).
The tastants were presented at two-fold or three-fold ascending concentrations. The mice were allowed a 7-day recovery period with deionized water between tastants. The order of tastants for Group 1 was sucrose, quinine, SC45647, MSG, acesulfame K, sucralose and glucose. The order of tastants for Group 2 was NaCl, HCl and maltose. All tastants were of the highest purity available. MSG solutions also contained 10 micromolar amiloride to block the salty taste of the Na+. Tastant concentrations are listed below in order of presentation:
as §1

SMILES: C=C[C@H]1CN2CC[C@H]1C[C@H]2[C@H](O)c1ccnc2ccc(OC)cc12.C=C[C@H]1CN2CC[C@H]1C[C@H]2[C@H](O)c1ccnc2ccc(OC)cc12.O=S(=O)(O)O [Quinine, quinine sulfate]
- GL responses of T1R3 knock-out mice compared with B6 wild-type mice [1]: unchanged

SMILES: N[C@@H](CCC(=O)O)C(=O)[O-].[Na+] [MSG, monosodium glutamate]
- CT responses of T1R3 knock-out mice compared with B6 wild-type mice [2]: slightly diminished; also recorded: diminished only at the highest concentration tested
- GL responses of T1R3 knock-out mice compared with B6 wild-type mice [1]: no differences
- Behavioral (preference) response of T1R3 knock-out mice compared with B6 wild-type mice [3]: moderately diminished
- Behavioral (preference) response of T1R3 knock-out mice compared with B6 wild-type mice ([3]; listed as monosodium glutamate (MSG)): reduced response
- Preference of T1R3 knock-out mice compared with B6 wild-type mice ([3]; concentrations between 30 and 300 mM): reduced, but not abolished

SMILES: O=C1NS(=O)(=O)c2ccccc21 [saccharin]
- CT responses of T1R3 knock-out mice compared with B6 wild-type mice [2]: near-zero

SMILES: [Cl-].[Na+] [NaCl]
- GL responses of T1R3 knock-out mice compared with B6 wild-type mice [1]: unchanged

SMILES: OC[C@H]1O[C@H](O[C@]2(CCl)O[C@H](CCl)[C@@H](O)[C@@H]2O)[C@H](O)[C@@H](O)[C@H]1Cl [Sucralose, sucralose]
- CT responses of T1R3 knock-out mice compared with B6 wild-type mice [2]: near-zero
- Behavioral (preference) response of T1R3 knock-out mice compared with B6 wild-type mice [3]: indifference
- Preference responses compared among B6, 129 and T1R3 knock-out mice [3]: strongest in B6 mice, weakest in T1R3 knock-out mice, and intermediate in 129 mice

SMILES: OC[C@H]1O[C@@](CO)(O[C@H]2O[C@H](CO)[C@@H](O)[C@H](O)[C@H]2O)[C@@H](O)[C@@H]1O [Sucrose, sucrose]
- CT responses of T1R3 knock-out mice compared with B6 wild-type mice [2]: markedly diminished; also recorded: moderately or markedly diminished
- GL nerve responses of B6 wild-type mice compared with their CT responses [1]: much lower
- GL responses of T1R3 knock-out mice compared with B6 wild-type mice [1]: Significant differences; also recorded: reduced
- Behavioral (preference) response of T1R3 knock-out mice compared with B6 wild-type mice [3]: markedly diminished; also recorded: indifference
- Behavior of T1R3 knock-out mice at high tastant concentration ([3]; concentrations 5- to 10-fold those needed to elicit a strong preference in B6 wild-type mice): preferred
- Response of T1R3 knock-out mice compared with 129 mice [3]: weaker

SMILES: C[C@H](NC(=NCC(=O)O)Nc1ccc(C#N)cc1)c1ccccc1 [SC45647]
- CT responses of T1R3 knock-out mice compared with B6 wild-type mice [2]: markedly diminished; also recorded: near-zero
- GL nerve responses of B6 wild-type mice compared with their CT responses [1]: much lower
- GL responses of T1R3 knock-out mice compared with B6 wild-type mice [1]: Significant differences; also recorded: reduced
- Behavioral (preference) response of T1R3 knock-out mice compared with B6 wild-type mice [3]: indifference
- Preference responses compared among B6, 129 and T1R3 knock-out mice [3]: strongest in B6 mice, weakest in T1R3 knock-out mice, and intermediate in 129 mice

SMILES: CC1=CC(=O)[N-]S(=O)(=O)O1.[K+] [AceK, acesulfame K]
- CT responses of T1R3 knock-out mice compared with B6 wild-type mice [2]: markedly diminished; also recorded: near-zero
- GL nerve responses of B6 wild-type mice compared with their CT responses [1]: lower at concentrations below 100 mM, but higher at 300 mM
- Concentration at which the reduced GL response of T1R3 knock-out mice was evident ([1]; T1R3 knock-out vs B6 wild-type): 30 to 300 mM
- GL responses of T1R3 knock-out mice compared with B6 wild-type mice [1]: Significant differences; also recorded: reduced
- Behavioral (preference) response of T1R3 knock-out mice compared with B6 wild-type mice [3]: indifference
- Preference responses compared among B6, 129 and T1R3 knock-out mice [3]: strongest in B6 mice, weakest in T1R3 knock-out mice, and intermediate in 129 mice

SMILES: Cl [HCl]
- GL responses of T1R3 knock-out mice compared with B6 wild-type mice [1]: unchanged

SMILES: OC[C@H]1O[C@H](O[C@H]2[C@H](O)[C@@H](O)C(O)O[C@@H]2CO)[C@H](O)[C@@H](O)[C@@H]1O (mixture of isomers) [Maltose, maltose]
- CT responses of T1R3 knock-out mice compared with B6 wild-type mice [2]: significant differences; also recorded: diminished; also recorded: moderately or markedly diminished
- Behavioral (preference) response of T1R3 knock-out mice compared with B6 wild-type mice [3]: no difference
- Response of T1R3 knock-out mice compared with 129 mice [3]: did not differ

SMILES: OC[C@@H](O)[C@@H](O)[C@H](O)[C@@H](O)CO [sorbitol]
- CT responses of T1R3 knock-out mice compared with B6 wild-type mice [2]: diminished; also recorded: moderately or markedly diminished

SMILES: O=C(CO)[C@@H](O)[C@H](O)[C@H](O)CO [fructose]
- CT responses of T1R3 knock-out mice compared with B6 wild-type mice [2]: diminished; also recorded: moderately or markedly diminished

SMILES: O=C[C@H](O)[C@@H](O)[C@H](O)[C@H](O)CO [Glucose, glucose]
- CT responses of T1R3 knock-out mice compared with B6 wild-type mice [2]: not significantly diminished
- Behavioral (preference) response of T1R3 knock-out mice compared with B6 wild-type mice [3]: reduced response; also recorded: slightly reduced
- Response of T1R3 knock-out mice compared with 129 mice [3]: did not differ

SMILES: N[C@H](Cc1c[nH]c2ccccc12)C(=O)O [D-tryptophan]
- CT responses of T1R3 knock-out mice compared with B6 wild-type mice [2]: nearly abolished; also recorded: near-zero
